No end group written: not given here.
Columns and labels:
MSH receptor [1] = target: T1, MSH receptor (Homo sapiens, UniProt Q01726); experiment: Inhibition of 125I-NDP-MSH binding to stable COS-7 cell line harbouring pRC/CMV-11D; conditions: NDP-MSH radioligand competition
T1 construct: This polypeptide constitutes the entire polypeptide of an MSH receptor; expressed in transfected cells; host or cells: COS-7 cells, transient, plasmid pE-11D (pcDNAI)
Description: COS-7 cells (available from ATCC) were grown in Dulbecco's modified Eagle medium with 8% fetal calf serum and non-essential amino acids (Gibco/BRL, 8400 Helgerman Court, Gaithersburg, Md. 20877, USA) in serum free medium, five hours after transfection, serum containing medium was replaced, and cells were cultivated for 48 hours. At this time selection for the calls stably harbouring the pRC/CMV-11D plasmid was begun by growing the cells in neomycin (0.5 mg/ml) containing medium (selection medium). Selection procedure was continued for two weeks, replacing the selection medium every 4th day. surviving cells were collected and maintained in the selection medium. These cells constitute the stable cell line.
To investigate the binding properties cells were scraped off from the culture flask, centrifuged, resuspended in selection medium, plated on 48 well, and allowed to grow for 24 hours. […] Radioactivity was counted and data analyzed by an iterative, non-linear curve fitting programme suitable for radioligand binding analysis. […]

MC-2 receptor = target: T2, MC-2 receptor (Homo sapiens, UniProt P33032); experiment: Inhibition of 125I-NDP-MSH binding to COS-7 cells transfected with pE-MC-2; conditions: pE-MC-2 transfected COS-7 cells
T2 construct: expressed in transfected cells; host or cells: COS-7 cells, transient, plasmid pE-MC-2 (pRC/CMV)
T2 sequence (P33032 whole entry): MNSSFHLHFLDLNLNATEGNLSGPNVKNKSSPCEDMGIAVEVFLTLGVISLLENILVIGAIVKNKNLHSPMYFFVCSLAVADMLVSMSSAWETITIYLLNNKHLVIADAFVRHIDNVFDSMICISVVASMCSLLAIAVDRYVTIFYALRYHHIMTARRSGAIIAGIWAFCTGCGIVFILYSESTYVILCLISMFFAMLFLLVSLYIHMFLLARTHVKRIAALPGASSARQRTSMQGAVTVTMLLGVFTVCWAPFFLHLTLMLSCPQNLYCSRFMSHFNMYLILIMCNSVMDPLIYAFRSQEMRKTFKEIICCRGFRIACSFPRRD
Description: (§1) Eighty percent confluent cultures were transfected with 1 μg of pE-MC-2 plasmid DNA and 40 μg lipofectin (BRL, 8400 Helgerman Court, Gaithersburg, Md. 20877, USA) in serum free medium. Five hours after transfection, serum containing medium was replaced, and cells were cultivated for 20 hours. Cells were then scraped off, centrifuged, resuspended in serum containing medium, plated on 48 well plates, and allowed to grow for 24 hours. […] Radioactivity was counted and data analyzed by iterative, non-linear curve fitting programme suitable for radioligand binding analysis (see FIG. 9).

MSH receptor [2] = target: T1, MSH receptor; experiment: Inhibition of 125I-NDP-MSH binding to COS-7 cells transfected with MSH receptor cDNA (pE-11D); conditions: pE-11D transfected COS-7 cells
Description: as §1, with “pE-11D” for “pE-MC-2”, “6).” for “9).”

[3] = 37° C., 2 hours, Ki from IC-50 by Cheng and Prusoff equation, read-out: Ki for inhibiting 125I-NDP-MSH binding

T1 sequence (Q01726 whole entry): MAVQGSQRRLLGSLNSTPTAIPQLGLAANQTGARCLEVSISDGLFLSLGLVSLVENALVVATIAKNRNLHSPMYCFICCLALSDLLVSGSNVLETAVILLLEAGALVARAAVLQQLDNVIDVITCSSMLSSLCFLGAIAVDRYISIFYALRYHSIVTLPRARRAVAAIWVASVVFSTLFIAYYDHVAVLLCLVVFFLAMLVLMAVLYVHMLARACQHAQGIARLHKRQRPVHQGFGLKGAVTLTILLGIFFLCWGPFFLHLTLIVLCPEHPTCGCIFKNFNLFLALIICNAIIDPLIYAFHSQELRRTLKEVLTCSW

Row | Compound | binding affinity for the expressed MSH receptor (MSH receptor [1]) | Ki (MC-2 receptor; [3]) | Ki (MSH receptor [2]; [3]) | affinity for the expressed MC-2 receptor (MC-2 receptor; 125I-NDP-MSH competition) | affinity for the expressed MSH receptor (MSH receptor [2]; 125I-NDP-MSH competition)
1 | CSCC[C@H](N)C(=O)N[C@@H](CCC(=O)O)C(=O)N[C@@H](Cc1c[nH]cn1)C(=O)N[C@@H](Cc1ccccc1)C(=O)N[C@@H](CCCNC(=N)N)C(=O)N[C@@H](Cc1c[nH]c2ccccc12)C(=O)NCC(=O)O [ACTH (4-10)] | very low binding affinity |  |  |  | 
2 | SYSMEHFRWGKPVGKKRRPVKVYPNGAEDESAEAFPLEF [ACTH (1-39)] |  | 929 ± 389 nM | 0.17 ± 0.037 nM |  | 
3 | β-endorphin: non-melanotropic POMC peptide | no affinity |  |  | no affinity | no affinity
